Results as given in patent US20090305225A1, “Inhibition of Creatine Uptake to Promote Weight Loss” (priority 2005, published 2009).

How the values were obtained:
Format in all cases: in vivo, rat
[1] = system: creatine transporter (CrT) mRNA; test: Real-Time PCR of creatine transporter mRNA in hypothalami of CoPP-treated rats; details: hypothalamus, 48 hours after icv, normalized to L32 mRNA, mean ± SEM
Protocol: RNA was purified with RNAase-free DNase (Promega) at 37 degrees C. for 30 min. The first strand of cDNA was synthesized by adding 1 ug of purified RNA from each sample to 20 ul containing MMLV reverse transcriptase (Invitrogen Life Tech). Creatine transporter (CrT) gene expression was further quantatified by Real-Time PCR using sense primer: 5′[…]′ (SEQ ID NO: 1); antisense primer: 5′[…]-3′ (SEQ ID NO:2) and TaqMan probe: 5′[…]-3′ (SEQ ID NO: 3) (MMG-Biotech). The rat ribosomal protein L32 gene was used as a loading control. Each cDNA sample (1 ul) derived from the 20 ul reverse transcription reaction and 1 ul RNA template was mixed with 24 ul master mixture (Perkin Elmer) in a 96-well TaqMan plate. The PCR was run in an ABI prism 7700 thermocycler (Applied Biosystems) at 50 degrees C. for 2 min and 95 degrees C. for 10 min; this was followed by 95 degrees C. for 15 sec and 60 degrees C. for 1 min for 40 cycles. The data were analyzed using software supplied with the ABI prism 7700.

[2] = system: 11G2L cDNA (creatine transporter mRNA); test: Differential display of hypothalamic mRNA (band 11G2L); details: icv CoPP 0.4 umol/kg, 48 hours, absent in vehicle fed and fasted rats
Protocol: RNA Extraction from Rat Hypothalamus. Adult male Sprague-Dawley rats were randomly separated into three groups. Group 1 (control) was injected icv with saline and fed ad lib. Group 2 (fasted) was injected icv with saline and allowed ad lib access to water only; Group 3 (CoPP) was injected icv with CoPP 0.4 umol/kg body weight and fed ad lib. After 24 and 48 hours, weights were measured. Only those rats with robust weight loss of at least 10% of initial body weight 48 hours after treatment were chosen for the CoPP group. Eleven rats from each group were then killed by decapitation, using procedures outlined in the Animal Welfare Act and as approved by the University of Vermont, Office of Animal Care Management. The hypothalamic block of each rat was dissected from the rat's brain as described and immediately homogenized with RNase-free homogenizer. Total RNA was extracted using an Ultraspec-II RNA kit (Biotecx Laboratories, Inc., Houston, Tex.) following the manufacturer's procedures and stored at −80 degrees C. until analysis.
Differential Display-Reverse Transcription-Polymerase Chain Reaction (DD-RT-P). The RNAimage mRNA Differential Display system was purchased from GenHunter Corporation (Nashville, Tenn.). Three anchored H-T11M (where M refer to G, A, or C) primers and 12 sets of arbitrary primers (HAP 1 to 12) were chosen to use in this particular experiment. […]

[3] = system: 11G2L (creatine transporter mRNA); test: Northern blot of 11G2L in hypothalamic RNA
Protocol: Northern Blots were used to confirm the results we obtained from the differential display. Six additional rats from each group (saline, CoPP, and fasted) were used in Northern Blot experiments. Total RNA (15 ug) extracted from the hypothalami of these rats was loaded on 1.3% formaldehyde-agarose gels. After 3.5 hours running at 56V, the gels were transferred to Hybrond-N+ membrane (Amersham, Piscataway, N.J.). The cloning inserts were released from PCR-TRAP Vectors by PCR amplification and then gel-purified with the Wizard®DNA Clean-up System (Promega). The inserts were labeled with [alpha^32P]dCTP (Perkin Elmer) using a random primers DNA labeling kit (Invitrogen, San Diego, Calif.). Labeled probe (25 ng) was denatured and then hybridized with a membrane which had been pre-incubated for 15 min in 15 ml Rapidhyb buffer (Amersham) in a Roller-Blot Hybridizer (Techne HB-3D, Cambridge, UK) for 1 hour. After washing under different stringencies, depending on the probes used, the membranes were exposed overnight to film. The autoradiographs were scanned using a GS-700 imaging densitometer (BioRad, Inc., Hercules, Calif.) and analyzed using Quantity One software (BioRad). A series of primer sets were designed using available sequences for inserts or for related mRNA cds.

With `C=Cc1c(C)c2cc3[nH]c(cc4nc(cc5nc(cc1[nH]2)C(C)=C5CCC(=O)[O-])C(CCC(=O)[O-])=C4C)c(C)c3C=C.[Co+2]` [CoPP, Cobaltic protoporphyrin IX] the “Real-Time PCR” value [1] was 0.97 ± 0.050 arbitrary units, the “cDNA band 11G2L in differential display” value [2] was “present” and the “increase of 11G2L expression compared to vehicle-treated animals (fed or fasted)” value ([3]; Northern densitometry normalized to L32, p<0.02) was “approximately 20%”. For the same compound, the “Northern Blot Densitometry of 11G2L” value ([3]; hypothalamus, 48 hours after icv, normalized to L32 mRNA) was 1.023±* arbitrary units.
